{"source": "patent US20040229844A1", "about": "“Method of treating atherosclerosis, dyslipidemias and related conditions” (priority 2003, published 2004)", "key": {"[1]": {"system": "prostaglandin D2-induced vasodilation", "assay": "Prostaglandin D2-induced vasodilation in mice", "assay_type": "in vivo, mouse", "details": "FIG. 1", "description": "Compound D suppressed PGD-2 induced vasodilation in the mouse (FIG. 1). The DP antagonists tested suppressed nicotinic acid-induced vasodilation in the mouse; data for selected compounds is provided in FIGS. 2 and 3."}, "[2]": {"system": "nicotinic acid-induced vasodilation", "assay": "Nicotinic acid-induced vasodilation in mice (ear perfusion, laser Doppler)", "assay_type": "in vivo, mouse", "details": "male C57BL/6 mice, DP antagonist ~40 mpk i.p., nicotinic acid ~100 mpk s.c., FIGS. 2 and 3", "procedure": "Blood flow in the mouse ear (a measure of vasodilation, a prominent component of flushing in humans) is measured after administration of nicotinic acid to mice that had been pretreated with vehicle (as a control) or a DP antagonist. Specifically, male C57BL/6 mice (˜25 g) were used in the study. Five mice were evaluated in each test group. Nembutal was diluted with water to a final concentration of 5 mg/ml and injected 0.3 ml/mouse intraperitoneally. DP antagonists were dissolved in 5% hydroxypropyl β-cyclodextrin at a final concentration of 5 mg/mi and the compounds were administered intraperitoneally at a volume of 0.2 mi/mouse (˜40 mpk). Nicotinic acid was dissolved in 5% hydroxypropyl β-cyclodextrin at a final concentration of 12.5 mg/mi. […]\nPerfusion of mouse ear skin was monitored with a laser Doppler perfusion imager (PeriScan PIM II, Perimed, Sweden) every 30 seconds for 15 minutes starting 5 minutes prior to nicotinic acid administration. Percent changes in mean perfusion over the 10 minute period after vehicle or nicotinic acid administration were calculated and a graph of percent change in mean perfusion vs. time was generated for each animal. The area under the curve (AUC) of mean perfusion (% Δ×min) was then calculated from each graph and the results are expressed in mean AUC±SEM for each group."}}, "note": "“Also recorded” adds a separate entry of the source.", "data": [{"compound": "CC(O)c1cc(S(C)(=O)=O)cc2c3c(n(Cc4ccc(Cl)cc4)c12)[C@@H](CC(=O)O)CC3", "note": "(some centres unmarked) [Compound D]", "values": [{"measurement": "inhibition of prostaglandin D2-induced vasodilation", "setting": "[1]", "result": "inhibits; also recorded: suppressed"}, {"measurement": "inhibition of nicotinic acid-induced vasodilation", "setting": "[2]", "result": "inhibits"}]}]}
